Nine molecules from patent US4897397A, “Aryl-alkynoic, alkenoic or alkanoic compounds and compositions useful as antiallergy and anti-inflammatory agents” (Schering Corporation, priority 1988, dated 1990) can be followed below.

SMILES strings stand for the structures.

This experiment has as its target T1, 5-Lipoxygenase (Mus musculus, UniProt P48999).
T1 construct: Use the interleukin-3-dependent murine mast cell clone, MC-9; endogenous in cells; host or cells: MC-9 murine mast cell clone (interleukin-3-dependent)
T1 sequence (P48999 1-674): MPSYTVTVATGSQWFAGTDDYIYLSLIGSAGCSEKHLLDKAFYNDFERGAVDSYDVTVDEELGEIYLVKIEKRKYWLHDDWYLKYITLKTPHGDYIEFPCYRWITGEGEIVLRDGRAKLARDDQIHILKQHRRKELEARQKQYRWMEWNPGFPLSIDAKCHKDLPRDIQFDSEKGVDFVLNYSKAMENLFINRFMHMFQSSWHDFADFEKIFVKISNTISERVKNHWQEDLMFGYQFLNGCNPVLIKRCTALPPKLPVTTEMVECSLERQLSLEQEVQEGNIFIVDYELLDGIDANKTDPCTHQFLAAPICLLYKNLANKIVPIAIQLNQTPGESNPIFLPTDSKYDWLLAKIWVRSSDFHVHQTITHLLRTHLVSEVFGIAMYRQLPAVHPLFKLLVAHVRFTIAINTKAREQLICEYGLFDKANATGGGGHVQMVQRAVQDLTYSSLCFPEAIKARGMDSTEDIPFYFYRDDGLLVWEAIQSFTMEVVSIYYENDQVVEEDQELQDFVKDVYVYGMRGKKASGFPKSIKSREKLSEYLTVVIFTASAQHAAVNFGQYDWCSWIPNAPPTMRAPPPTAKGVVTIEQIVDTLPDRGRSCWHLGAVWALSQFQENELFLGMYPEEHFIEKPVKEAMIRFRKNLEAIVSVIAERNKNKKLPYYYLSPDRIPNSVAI
Briefly: 5-Lipoxygenase Assay (inhibition of LTC4 and 5-HETE production in MC-9 mast cells). Format: cell-based. Particulars: MC-9 murine mast cells, [14C]-arachidonic acid, A23187. The source says:
Use the interleukin-3-dependent murine mast cell clone, MC-9, to test the effects of representative compounds of the invention on lipoxygenase activity. Grow the MC-9 cell line in suspension culture (0.4 to 1.2×10^6 cells/ml) in RPMI 1640 medium (Gibco) with 10% fetal bovine serum (Hyclone) and 2-5% concanavalin-A conditioned supernatant (Musch et. al., (1985) Prostagandins 29, 405-4307). Harvest the cells, wash them twice by centrifugation, and resuspend them in a Ca^++ -free HEPES buffer (25 mM HEPES, 125 mM NaCl, 2.5 mMKCl, 0.7 mM MgCl2 0.5 mM EDTA and 10 mM glucose at pH 7.4).
Preincubate MC-9 cells (0.39 ml at 7.5×10^6 cells/ml) without or with test compound dissolved in dimethylsulfoxide (DMSO) vehicle (to final volume 1 ml) for 4 minutes then incubate for 5 minutes with [^14 C]-arachidonic acid (Amersham, 59 Ci/mole) at a […] final concentration, and A23187 (Calbiochem) at a […] final concentration in […] of water:ethanol (9:1). Stop the reaction by addition of methanol (0.4 ml), and remove cellular debris by centrifugation. Run aliquots ([…]) of the incubations on a Waters two-pump HPLC system fitted with a Waters radial compression column (C18, 10 micron, 8×100 mm, micro-Bondapak) and C18 "Guard Pak". Initially elute the column at 3 ml/min with water:methanol:acetic acid (67:33:0.08) containing 1 mM EDTA adjusted to pH 6.0 with ammonium hydroxide (Pump A). At 4 minutes, establish a linear gradient to reach 100% methanol (Pump B) at 9 minutes. Between 13 and 14 minutes, exchange for the initial eluting solvent and by 19 minutes the column will be reequilibrated for the next sample. Analyze the effluent by a continuous flow radioactivity monitor (model ROMONA-D) interfaced with a Hewlett Packard Lab Automation System for quantitation of radioactive products.
These products are predominantly leukotriene C4 (LTC4), which elutes at 6 minutes, and 5-hydroxeicosatetraenoic acid (5-HETE), which elutes at 11 minutes (Musch et. al., supra). […] Doses in table 1 are 50 μM unless otherwise noted.
Usually inhibition stands for how much of the control response was suppressed. Higher therefore signals a response far below the control. For `O=C(O)CCCC#Cc1cccc(OCc2ccccc2)c1`, the inhibition at 50 µM amounted to 80%.
Under `O=C(O)CCCCCc1cccc(OCc2ccccc2)c1` stands 80%; under `O=C(O)CCC/C=C/c1cccc(OCc2ccccc2)c1`, 84%.
Take `O=C(O)CCC/C=C/c1cccc(Oc2ccccc2)c1`: at 50 µM the inhibition was 74%.
`O=C(O)CCC/C=C/c1cccc(OCC2CCCCO2)c1` (stereo not drawn) showed an inhibition at 50 µM of 23%.
For the molecule `O=C(O)CCC/C=C/c1cccc(SCc2ccccc2)c1`, at 50 µM the inhibition was 0%.
Molecule `O=C(O)CCC/C=C/c1cccc(OCc2cccnc2)c1` gave an inhibition at 50 µM of 7%.
Turning to `CCOC(=O)CCC/C=C/c1cccc(OCc2c[nH]cn2)c1`, the inhibition at 50 µM came to 89%.
`O=C(O)CCC/C=C\c1cccc(OCc2ccccc2)c1` showed an inhibition at 50 µM of 89%.
